These molecules were tested against T1, human TLR8 (Homo sapiens, UniProt Q9NR97) (assay: SEAP reporter assay in HEK-Blue TLR8 cells, R848-induced TLR8 signaling). Details: not given.
T1 construct: expressed in transfected cells; host or cells: HEK-Blue Null1 cells, lentiviral infection
T1 sequence (Q9NR97 27-1041): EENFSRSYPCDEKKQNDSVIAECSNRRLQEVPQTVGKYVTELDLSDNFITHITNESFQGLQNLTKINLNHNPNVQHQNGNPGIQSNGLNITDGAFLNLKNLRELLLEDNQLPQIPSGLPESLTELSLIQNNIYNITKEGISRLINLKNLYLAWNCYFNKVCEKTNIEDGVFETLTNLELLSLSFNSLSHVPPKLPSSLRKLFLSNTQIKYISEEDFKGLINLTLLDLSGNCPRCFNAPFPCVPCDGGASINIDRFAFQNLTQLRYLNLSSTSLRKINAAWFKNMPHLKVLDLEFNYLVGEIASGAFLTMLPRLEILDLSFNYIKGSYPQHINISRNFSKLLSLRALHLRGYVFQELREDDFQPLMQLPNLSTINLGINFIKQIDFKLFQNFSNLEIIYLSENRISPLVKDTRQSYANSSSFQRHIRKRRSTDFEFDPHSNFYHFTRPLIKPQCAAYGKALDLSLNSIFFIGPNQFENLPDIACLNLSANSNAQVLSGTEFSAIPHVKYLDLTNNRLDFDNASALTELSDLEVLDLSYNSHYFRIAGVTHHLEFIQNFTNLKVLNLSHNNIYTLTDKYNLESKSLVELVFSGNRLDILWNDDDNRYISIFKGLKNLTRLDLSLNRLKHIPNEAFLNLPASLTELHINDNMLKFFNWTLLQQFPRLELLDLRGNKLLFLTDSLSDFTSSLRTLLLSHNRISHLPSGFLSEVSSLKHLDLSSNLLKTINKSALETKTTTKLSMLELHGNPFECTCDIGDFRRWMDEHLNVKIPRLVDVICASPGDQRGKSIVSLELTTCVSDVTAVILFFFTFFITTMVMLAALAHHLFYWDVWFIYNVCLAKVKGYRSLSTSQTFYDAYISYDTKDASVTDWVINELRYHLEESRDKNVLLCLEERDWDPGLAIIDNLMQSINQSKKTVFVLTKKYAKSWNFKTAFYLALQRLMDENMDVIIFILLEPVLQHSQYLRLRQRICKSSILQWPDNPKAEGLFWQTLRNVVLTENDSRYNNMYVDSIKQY
Assay type: cell-based
Procedure: SEAP reporter assay: HEK-Blue TLR8 cells were seeded in tissue culture treated 96-well plates with a density of 7.5×10^4 cells/well in DMEM media supplemented with 10% FBS (phosphatases deactivated with heat). […] Plates are then incubated in humidified incubators containing 5% CO2 at 37° C. for 24 h, after which, 30 μL of culture media was transfer to a new plate and 100 μL of Quanti-Blue (Invivogen) was added, the plate was then incubated at 37° C. till color change (30 min-1 h). Readout of absorbance at 620 nm was quantified using Beckman-Coulter DTX 880 Multimode Detector. […] SEAP assays for each sample were conducted with three biological replicates, each in triplicate.
To establish a robust high throughput assay for TLR8 inhibitors, the inventors first engineered a cell line stably overexpressing the human TLR8 whose activation can be reported by the Secreted Embryonic Alkaline Phosphatase (SEAP) assay. TLR8-overexpresing HEK-Blue cells were prepared by lentiviral infection of HEK-Blue Null1 cells that have null or low basal expression of endogenous TLR genes. […] The TLR8-mediated NF-κB activation can be assessed by measuring the SEAP activity.

IC50	Structure (SMILES)
1 ± 0.2 nM	Cc1cc(-c2ccnc3cc(Cl)ccc23)ccc1O [CU-CPT9c, 4-(7-Chloro-4-quinolinyl)-2-methyl-phenol]

Same assay, conditions: 1(2H)-phthalazinone and quinoline derivatives in HEK-Blue hTLR8 cells

IC50	Structure (SMILES)
160 ± 20 nM	Cc1cc(-c2cncc3ccccc23)ccc1O [Compound 39, 4-Isoquinolin-4-yl-2-methylphenol]
> 20000 nM	Cc1cc(-c2cccc3ccccc23)ccc1O [Compound 43, 1-(4-Hydroxy-3-methylphenyl)naphthalene]
300 ± 70 nM	Cc1cc(-c2ccnc3cccnc23)ccc1O [Compound 50, 4-(4-Hydroxyl-3-methylphenyl)-1,5-naphthyridine]
> 20000 nM	Cc1cc(-c2n[nH]c(=O)c3ccccc23)cc(C)c1N [Compound 15]
> 20000 nM	CCn1nc(-c2ccc(O)c(C)c2)c2ccccc2c1=O [Compound 31, 4-(4-Hydroxy-3-methylphenyl)-2-ethyl-1(2H)-phthalazinone]
170 ± 20 nM	Cc1cc(-c2nn(C)c(=O)c3ccccc23)cc(C)c1O [Compound 4, 4-(4-Hydroxy-3,5-dimethylphenyl)-2-methyl-1(2H)-Phthalazinone]
> 20000 nM	COc1ccc(-c2nn(C)c(=O)c3ccccc23)cc1 [Compound 10, 4-(4-Methoxyphenyl)-2-methyl-1(2H)-phthalazinone]
> 20000 nM	O=c1[nH]nc(-c2ccc(O)c(C(F)(F)F)c2)c2ccccc12 [Compound 26, 4-(4-Hydroxy-3-trifluoromethylphenyl)-1(2H)-phthalazinone]
> 20000 nM	O=c1c2ccccc2c(-c2ccccc2)nn1-c1ccccc1 [Compound 33, 2,4-Diphenyl-1(2H)-phthalazinone]
> 20000 nM	COc1c(C)cc(-c2n[nH]c(=O)c3ccccc23)cc1C [Compound 11, 4-(4-Methoxy-3,5-dimethylphenyl)-1(2H)-phthalazinone]
13000 ± 2140 nM	Cc1cc(-c2n[nH]c(=O)c3cccnc23)cc(C)c1O [Compound 35]
7030 ± 360 nM	COc1ccc(-c2ccc(O)c(C)c2)c2ccccc12 [Compound 1, 1-Methoxy-4-(4-hydroxy-3-methylphenyl)-naphthalene]
> 20000 nM	CCOc1ccc(-c2nn(CC)c(=O)c3ccccc23)cc1C [Compound 32, 4-(4-Ethoxyl-3-methylphenyl)-2-ethyl-1(2H)-phthalazinone]
> 20000 nM	Cc1cc(-c2n[nH]c(=O)c3cccc(C)c23)ccc1O [Compound 34, 4-(4-Hydroxy-3-methylphenyl)-5-methyl-1(2H)-phthalazinone]
350 ± 120 nM	Cc1cc(-c2ncnc3ccccc23)ccc1O [Compound 38, 4-(3-Methyl-4-Hydroxyphenyl)quinazoline]

Structure (SMILES)	IC50
CC(=O)Oc1c(C)cc(-c2n[nH]c(=O)c3ccccc23)cc1C [Compound 17, 4-(4-Acetoxy-3,5-dimethylphenyl)-1(2H)-phthalazinone]	4760 ± 420 nM
CC(=O)Oc1ccc(-c2n[nH]c(=O)c3ccccc23)cc1C [Compound 18, 4-(4-Acetoxy-3-methylphenyl)-1(2H)-phthalazinone]	3770 ± 450 nM

Same assay, conditions: HEK-Blue TLR8 cells

IC50	Structure (SMILES)	fold higher potency than 6c	fold higher potency than 6d
> 20000 nM	NC(=O)c1cnn2c(-c3cccnc3)ccnc12 [Compound 6l]		
	NC(=O)c1cnn2c(-c3cccc(C(F)(F)F)c3)ccnc12 [Compound 6a]	2 fold	10 fold

Same assay, conditions: HEK-Blue TLR8 cells, R848 as agonist

Structure (SMILES)	IC50
NC(=O)c1cnn2c(-c3cccc(C(F)(F)F)c3)ccnc12 [Compound 6a]	130 nM

Same assay, conditions: pyrazolo[1,5-a]pyrimidine derivatives in HEK-Blue hTLR8 cells; ± SD, at least three biological replicates

Structure (SMILES)	IC50
NC(=O)c1cnn2c(-c3cccc(F)c3)ccnc12 [Compound 6g]	450 ± 90 nM
NC(=O)c1cnn2c(-c3cccnc3)ccnc12 [Compound 6l]	> 20000 nM
CNC(=O)c1cnn2c(-c3cccc(C(F)(F)F)c3)ccnc12 [Compound 6n]	1700 nM
NC(=O)c1cnn2c(-c3ccc(C(F)(F)F)cc3)ccnc12 [Compound 6d]	1220 nM
CCOC(=O)c1cnn2c(-c3cccc(C(F)(F)F)c3)ccnc12 [Compound 3a]	210 ± 43 nM
COc1ccccc1-c1ccnc2c(C(N)=O)cnn12 [Compound 6j]	2310 nM

Same assay, conditions: quinoline derivatives in HEK-Blue hTLR8 cells; ± SD, at least three biological replicates

Structure (SMILES)	IC50
Cc1cc(-c2ccc(O)c(C)c2)c2ccccc2n1 [Compound 11c]	86 ± 11 nM
Cc1cc(-c2cccc3ccccc23)ccc1O [Compound 11d]	> 20000 nM

Same assay, conditions: secondary amide analog versus primary amide

Structure (SMILES)	fold reduction in potency
CNC(=O)c1cnn2c(-c3cccc(C(F)(F)F)c3)ccnc12 [Compound 6n]	25 fold

Reference: patent US11466010B2, “Toll-like receptor 8 (TLR8) specific antagonists and methods of making and uses thereof” (The Regents of the University of Colorado, a body corporate, priority 2017, dated 2022)
